Assay results taken from PubChem BioAssay (NCI).
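Exposure lasted 48 hours, with cells grown in 96-well plates and compounds tested at five concentrations. The concentration for full growth arrest is given as TGI.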

What was measured:
Assay in all cases: NCI-60 cell line screen, 48 h
[1] = test system: HT29 colon
[2] = test system: SN12C renal
[3] = test system: TK-10 renal
[4] = test system: MDA-MB-231 breast
[5] = test system: DU-145 prostate
[6] = test system: CAKI-1 renal
[7] = test system: 786-0 renal
[8] = test system: SF-539 CNS
[9] = test system: K-562 leukemia
[10] = test system: IGROV1 ovarian
[11] = test system: EKVX NSCLC
[12] = test system: A549 NSCLC
[13] = test system: NCI-H460 lung
[14] = test system: HCT-116 colon
[15] = test system: LOX IMVI melanoma

Measured: TGI

C[n+]1c(-c2ccc(/C=N/NC(=O)C(=O)N/N=C/c3ccc(-c4cn5ccccc5[n+]4C)cc3)cc2)cn2ccccc21
not listed: [14] | [15]
> 100 µM: all other assays above

Cc1ncc(CSC(=N)N)n1Cc1ccccc1
not listed: [15]
> 100 µM: all other assays above

CCCCCCCc1ccc(-c2nnc(N=Nc3ccc(OCCCCC)cc3)s2)s1
not listed: [9] | [15]
> 100 µM: all other assays above

O=CC1=CCC2c3[nH]c4ccccc4c3CCN2C1 (configuration not stated)
273 µM: [1]
126 µM: [14]
111 µM: [15]
not listed: [4] | [5]
> 396 µM: all other assays above

CC(C)=CC(=O)c1c(C(=O)O)nc2ccccc2[n+]1[O-]
not listed: [4] | [5]
> 100 µM: all other assays above

CC(=O)[C@]1(O)Cc2c(O)c3c(c(O)c2[C@@H](OC2CC(N)C(O)C(C)O2)C1)C(=O)c1c(OCc2ccccc2)cccc1C3=O (some centres not stated)
2.16 µM: [7]
11.1 µM: [11]
7.45 µM: [8]
12 µM: [6]
6.93 µM: [12]
3.4 µM: [5]
6.31 µM: [13]
3.45 µM: [4]
1.79 µM: [14]
33.8 µM: [10]
14.7 µM: [1]
25 µM: [3]
2.68 µM: [9]
4.65 µM: [2]

COC(=O)CC1CC2(C(=O)OC)c3[nH]c4ccccc4c3CCN2C1=O (configuration not stated)
not listed: [4] | [5]
> 100 µM: all other assays above

O=c1c2cc(I)ccc2nc(-c2cccs2)n1O
96.9 µM: [5]
98.4 µM: [6]
80.4 µM: [15]
61.2 µM: [12]
79.4 µM: [3]
not listed: [4]
> 100 µM: all other assays above
